{
  "source": "patent US9538763B2",
  "about": "“Cleaning, disinfecting and microbicidal compositions” (priority 2009, dated 2017)",
  "assay_type_in_all_cases": "cell-based",
  "key": {"Escherichia coli": {"system": "Escherichia coli", "assay": "modified detergent and germicidal sanitizer test of the A.O.A.C.", "details": "50 ppm hypochlorite control", "description": "(§1) The microbicidal efficacy of the microbicidal disinfecting compositions of Examples 1-3 (compositions A-C) were evaluated with 50 ppm of hypochlorite as a control against Staphylococcus aureus and Escherichia coli by the modified detergent and germicidal sanitizer test of the A.O.A.C. (Lopes, 1986)."}, "Staphylococcus aureus": {"system": "Staphylococcus aureus", "assay": "modified detergent and germicidal sanitizer test of the A.O.A.C.", "details": "50 ppm hypochlorite control", "description": "as §1"}, "Salmonella": {"system": "Salmonella", "assay": "treatment of Salmonella-contaminated tomatoes", "details": "150 ppm", "description": "The microbicidal efficacy of the microbicidal disinfecting composition of Example 1 (composition A) was further tested and proven effective against Salmonella on contaminated tomatoes. When Salmonella-contaminated tomatoes were treated with 0.1% solution of composition A, the viable bacterial population was reduced by 2.31 log10 CFU as compared with 2.11 log10 CFU with 150 ppm of hypochlorite."}},
  "data": [
    {"molecule": "OCl", "note": "[Hypochlorite, hypochlorite]", "values": [
      {"measurement": "% Kill E. coli", "setting": "Escherichia coli", "result": ">99.999", "unit": "%"},
      {"measurement": "% Kill Staph. aureus", "setting": "Staphylococcus aureus", "result": ">99.999", "unit": "%"},
      {"measurement": "reduction of viable bacterial population", "setting": "Salmonella", "result": 2.11, "unit": "log10 CFU"}
    ]}
  ]
}
